Where two headings read alike, the source gives them in different places.

For test [1], the target named is T1, precorrin-4 C(11)-methyltransferase (CobM), Cp-CobM (Corynebacterium pseudotuberculosis, UniProt D9QAC4). Kind of test: biochemical. The class given is binding.
Test [2] addresses T1, precorrin-4 C(11)-methyltransferase (CobM), Cp-CobM. Kind of test: biochemical. The class given is binding. The source holds these as a separate data set.

T1 sequence (D9QAC4 1-257): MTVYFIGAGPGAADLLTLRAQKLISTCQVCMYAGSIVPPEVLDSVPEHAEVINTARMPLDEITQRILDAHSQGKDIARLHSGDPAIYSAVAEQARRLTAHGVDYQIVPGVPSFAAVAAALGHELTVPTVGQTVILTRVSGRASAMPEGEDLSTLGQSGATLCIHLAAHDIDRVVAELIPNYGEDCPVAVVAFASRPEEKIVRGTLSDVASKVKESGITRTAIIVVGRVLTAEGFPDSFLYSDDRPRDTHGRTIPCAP

By Kd is commonly meant the constant that tells how readily two partners part at equilibrium. Lower therefore signals higher affinity. `C[S+](CC[C@H](N)C(=O)[O-])C[C@H]1O[C@@H](n2cnc3c(N)ncnc32)[C@H](O)[C@@H]1O` (stereo partly shown) [SAM] gave a Kd in test [1] of 1.4 ± 0.7 µM.
In test [2], `Nc1ncnc2nc[nH]c12` [adenine] gave a Kd of 17.8 ± 1.5 µM.
Take `Nc1ncnc2c1ncn2[C@H]1C[C@H](O)[C@@H](COP(=O)(O)OP(=O)(O)OP(=O)(O)O)O1` [dATP]: in test [2], binding was put at a Kd of 15.8 ± 2 µM.
On to `Cc1ccc(C(=O)Nc2ccc(S(=O)(=O)O)c3cc(S(=O)(=O)O)cc(S(=O)(=O)O)c23)cc1NC(=O)c1cccc(NC(=O)Nc2cccc(C(=O)Nc3cc(C(=O)Nc4ccc(S(=O)(=O)O)c5cc(S(=O)(=O)O)cc(S(=O)(=O)O)c45)ccc3C)c2)c1` [suramin], for which, in test [1], the Kd came to 6.3 ± 1.1 µM.
